Assays:
[1] = test system: P. falciparum stage V male gametocytes (male gamete formation); test: P. falciparum dual gamete formation assay (Pf DGFA), male readout (exflagellation), 48 h carry-over format; assay type: cell-based, Plasmodium falciparum NF54; conditions: for %Inhibition Male @2uM: primary screen, 48 h incubation, single replicate; for Male IC50 / IC50: SAR, Fig. 6 and Fig. 7; for IC50: Plasmodium falciparum, read-out: Male IC50; for Selectivity: parasite selectivity compared to Tox50 in HepG2 cells
Procedure: (§1) P. falciparum NF54 strain (originally isolated from an imported malaria case in the Netherlands in the 1980s; BEI Resources, cat. no. MRA-1000) asexual and sexual stages culture was performed as previously described. Gametocyte cultures were initiated at 1% asexual ring stage parasitaemia and 4% haematocrit in 40 ml final volume. To induce gametocyte production, complete culture medium (CM) (RPMI 1640 supplemented with 25 mM HEPES, 50 µg ml^−1 hypoxanthine, 2 g l^−1 NaHCO3 and 10% pooled human male type A+ serum) was replaced daily for 14 days without fresh erythrocyte addition. Human serum was obtained from Interstate Blood Bank, A^+ serotype; no aspirin 2 h before drawing and no antimalarials 2 weeks before drawing. On day 14 after culture induction, gametocyte production was assessed by thin smear and Giemsa staining, and exflagellation accurately counted in a haemocytometer. Gametocyte cultures with >0.2% exflagellation (compared to total erythrocyte cell number) were deemed acceptable for use in the Pf DGFA. Note, all human biological samples were sourced ethically and their research use was in accord with the terms of the informed consents under an IRB/EC approved protocol.
(§2) In screening mode, the assay was performed as described in Delves et al.[35] with a mean Z′ factor of 0.56 ± 0.14 (SD) (male) and 0.71 ± 0.17 (SD) (female). Pooled mature gametocyte cultures with the capacity to yield >0.2% exflagellation (of total cells) were diluted in CM to 14 million cells per ml and so that 700,000 cells were dispensed in 50 µl into each well of the warmed 384-well screening plates. Parasites were incubated in the plates with compounds for 48 h in a humidified chamber under 92%N2/5% CO2/3% O2 gas mix before gamete formation was triggered by addition of 10 µl per well ookinete medium (RPMI 1640 supplemented with 25 mM HEPES, 50 µg ml^−1 hypoxanthine, 2 g l^−1 NaHCO3, 100 µM xanthurenic acid) containing 0.5 µg ml^−1 anti-Pfs25 clone 4B7 (BEI Resources, cat. no. MRA-315) conjugated to the fluorophore Cy3 (GE Healthcare), and also by cooling the plate at 4 °C for 4 min and then a further 5 min at 28 °C. Exflagellation was recorded immediately by brightfield microscopy using a Nikon Ti-E widefield microscope at ×4 objective, ×1.5 zoom, recording a 10-frame video time-lapse over 2 s for each well. Afterwards, plates were incubated in the dark at 28 °C for a further 24 h to allow female gametes to maximally express Pfs25 on their surface. Female gamete formation was recorded by single-image fluorescence microscopy using the same microscope and magnification as above. Exflagellation and female gamete formation were quantified by specific algorithms designed with the open-source ICY Image Analysis software.
(§3) Assay performance statistics, such as signal to background ratio, Z′ and robust 3×SD activity cut-off were calculated using templates in ActivityBase XE (IDBS, Guilford, Surrey, UK). Hit population analysis and visualisation were conducted using Spotfire DecisionSite (Spotfire, Inc., Somerville, Massachusetts). The pIC50 (−log IC50) values were obtained using the ActivityBase XE nonlinear regression function in the full curve analysis bundle. In screening mode, the Pf DGFA achieved a mean Z′ factor of 0.56 ± 0.14 (SD) (male) and 0.71 ± 0.17 (SD) (female).

[2] = test system: P. falciparum stage V female gametocytes (female gamete formation); test: P. falciparum dual gamete formation assay (Pf DGFA), female readout (Pfs25 expression), 48 h carry-over format; assay type: cell-based, Plasmodium falciparum NF54; conditions: primary screen, 2 uM, 48 h incubation, single replicate
Procedure: as §1
as §2, with “Parasites were incubated in the plates with compounds for 48 h in a humidified chamber under” left out
as §3

Compound	%Inhibition Male @2uM [1]	%Inhibition Female @2uM [2]	Male IC50 [1]	IC50 [1]	Selectivity [1]
Cc1ccc(-c2noc(C(C)NS(C)(=O)=O)n2)cc1 (stereo not drawn) [DDD01025633]	37.79%	<30%			
Cc1ccc(C(=O)N2CC[C@@]3(O)CCCC[C@H]3C2)cc1 [DDD01026498]	<30%	36.05%			
Cn1c(CN2CCCCCC2)cc(=O)c(O)c1CN1CCCC1 [DDD01027184]	31.50%	<30%			
NC(=O)Cn1c(CO)cnc1SCc1ccccc1Cl [DDD01027486]	<30%	30.58%			
O=C(Nc1ncnc2c1CCC2)c1cccc(F)c1 [DDD01027506]	<30%	33.11%			
COCCc1nnc(NC(=O)CSCc2ccccc2)o1 [DDD01027773]	33.86%	<30%			
O=S(=O)(c1ccccc1Br)N1CCC2(CC1)OCCS2 [DDD01027971]	<30%	31.22%			
C1CCN(c2nc(N3CCOCC3)nc3n[nH]nc23)CC1 [DDD01027997]	<30%	37.52%			
Cc1cccc(CS(=O)(=O)NCc2nn(C)c3c2COCC3)c1 [DDD01028624]	<30%	40.92%			
CNC(=O)[C@@H]1COC[C@H]2CN(C(=O)c3ccc(OC)cc3)C[C@H]21 [DDD01030727]	<30%	30.90%			
Cc1cnc(N2CCC[C@@H]3CN(CC(=O)N(C)C)C[C@@H]32)nc1 [DDD01031282]	<30%	34.01%			
O=C(Cc1ccsc1)N1C[C@@H]2OCCN(c3cnccn3)[C@@H]2C1 [DDD01031297]	<30%	38.82%			
CCn1ncc2c1C(COC)N(C(=O)c1ccc3c(c1)OCO3)CC2 (stereo not drawn) [DDD01031312]	<30%	34.92%			
COCCN1CCO[C@@H]2CN(C(=O)NCc3cccnc3)CC[C@@H]2C1 [DDD01031413]	<30%	31.80%			
c1cc(CNCC2Cn3nncc3CO2)co1 (stereo not drawn) [DDD01031485]	<30%	38.17%			
Cc1ccc(CN2CCCC3(CCN(Cc4ccoc4)CC3)C2)cc1 [DDD01031609]	<30%	33.18%			
Cc1ccc(N2CC[C@@H]3[C@@H]2CCN3C(=O)c2cscn2)nn1 [DDD01031738]	<30%	32.44%			
CN1CCN(C(=O)c2cc3c(s2)CCN3C(=O)C2CC2)CC1 [DDD01031830]	<30%	50.73%			
CO[C@H]1CC[C@H]2[C@H]1OCCN2Cc1ccc(F)c(F)c1 [DDD01032445]	37.39%	<30%			
O=C(O)c1nnn(-c2cc(F)cc(F)c2)c1-c1ccncc1 [DDD01034739]	<30%	37.18%			
Cc1cc2c(cc1NC(N)=O)OCO2 [DDD01037848]	<30%	32.47%			
O=C(NCc1ccco1)c1[nH]nc2c1CS(=O)(=O)CC2 [DDD01037866]	48.15%	<30%			
CCn1nc(C)c2nc(C)nc(NCCc3ccccc3)c21 [DDD01038123]	<30%	30.36%			
CCn1cc(CN2CCN(C(=O)c3cc(C)c(C)s3)CC2)c(C)n1 [DDD01038373]	<30%	36.25%			
CCN1CCN(C(=O)C2CC(=O)N(c3cnn(C(C)C)c3)C2)CC1 (stereo not drawn) [DDD01038633]	42.61%	<30%			
Cc1ccc2c(c1)c(C)cc(=O)n2CCCN [DDD01038649]	<30%	33.62%			

Compound	%Inhibition Male @2uM [1]	%Inhibition Female @2uM [2]	Male IC50 [1]	IC50 [1]	Selectivity [1]
COc1ccc(NC(=O)c2cnc(C3CCN(C)CC3)nc2C)cc1 [DDD01056828]	33.07%	<30%			
CC(=O)Nc1ccc(Br)cc1 [compound 7683]			Inactive		
O=C(CCl)Nc1ccccc1 [compound 11485]				2.41 µM	21
Cc1ccc(NC(=O)CCl)cc1 [compound 27967]				3.39 µM	15
COc1cccc(NC(=O)CCl)c1 [compound 28667]				2.21 µM	14
COc1ccc(NC(=O)CCl)cc1 [compound 31123]				2.66 µM	24
CN(C(=O)CCl)c1ccccc1 [compound 75797]				6.41 µM	2
Cc1ccccc1NC(=O)CCl [compound 101479]				10.4 µM	10
O=C(CCl)N1CCc2ccccc21 [compound 176897]				1.63 µM	8
O=C(CCl)Nc1ccccc1Cl [compound 222444]				11.2 µM	7
O=C(CCl)Nc1ccc(Cl)cc1Cl [compound 225998]				4.03 µM	21
O=C(CCl)Nc1ccc(O)cc1 [compound 236323]				1.95 µM	> 51
Cc1cc(Cl)ccc1NC(=O)CCl [compound 249708]				5.84 µM	> 17
Cc1cccc(NC(=O)CCl)c1 [compound 296325]				4.5 µM	18
O=C(CCl)Nc1ccccc1O [compound 350567]			Inactive		
O=C(Nc1ccc(Br)cc1)C(Cl)Cl [compound 532122]			Inactive		
O=C1C(Cl)=C(Cl)C(=O)N1c1ccc(Br)cc1 [compound 779209]			Inactive		
N#Cc1ccccc1NC(=O)CCl [compound 819001]				5.25 µM	> 19
NCC(=O)Nc1ccc(Br)cc1 [compound 871334]			Inactive		
O=C(CCl)Nc1ccccc1F [compound 1522874]				3.26 µM	> 31
Cc1cc(Br)ccc1NC(=O)CCl [compound 2097895]				4.77 µM	4
O=C(Nc1ccc(Br)cc1Cl)C(Cl)(Cl)Cl [compound 2725563]			Inactive		
CC(C)c1cc(Br)ccc1NC(=O)CCl [compound 4066920]				12.1 µM	2
Cc1cc(Br)ccc1NC(=O)CCCCl [compound 19226390]			Inactive		
O=C(CCl)Nc1ccc(CO)cc1 [compound 22457525]				2.08 µM	> 48
COC(=O)Nc1ccc(NC(=O)CCl)cc1 [compound 43701226]			Inactive		

From PMC6143625, “A high throughput screen for next-generation leads targeting malaria parasite transmission” (Nature Communications, 2018)
